{"source": "patent EP1849783A1", "about": "“Octahydropentalene-substituted pyrazoline compounds, their preparation and use as medicaments” (LABORATORIOS DEL DR. ESTEVE, S.A., priority 2006, dated 2007)", "key": {"cannabinoid receptors": {"test_system": "cannabinoid receptors", "assay": "Mouse tetrad model, antagonistic activity against Win 55212-2", "assay_type": "in vivo, Male NMRI mice", "settings": "against Win 55212-2 (1.25 mg/kg intravenous), substance injected 5 minutes before the agonist, mice", "excerpt": "Substances with affinity for cannabinoid receptors are known to produce a wide range of pharmacological effects. It is also known that intravenous administration of a substance with affinity for cannabinoid receptors in mice produces analgesia , hypothermia, sedation and catalepsy. Individually, none of these effects can be considered as proof that a tested substance has affinity for cannabinoid-receptors, since all of these effects are common for various classes of centrally active agents. However, substances, which show all of these effects, i.e. substances that are active in this so-called tetrad model are considered to have affinity for the cannabinoid receptors. It has further been shown that cannabinoid receptor antagonists are higly effective in blocking the effects of a cannabinoid agonist in the mouse tetrad model.\nThe tetrad model is described, for example, in the publication of A. C. Howlett et al, International Union of Pharmacology XXVII. Classification of Cannabinoid Receptors, Pharmacol Rev 54, 161-202, 2002 and David R. Compton et al., \"In-vivo Characterization of a Specific Cannabinoid Receptor Antagonist (SR141716A) Inhibition of Tetrahydrocannbinol- induced Responses and Apparent Agonist Activity\", J. Pharmacol. Exp. Ther. 277 , 2, 586-594, 1996. The corresponding parts of the description are hereby incorporated by reference. […]\nBefore testing in the behavioral procedures given below, mice are acclimatized to the experimental setting. Pre-Treatment control values are determined for analgesia hot plate latency (in seconds), rectal temperature, sedation and catalepsy.\nIn order to determine the agonistic activty of the substance to be tested, the mice are injected intravenously with the substance to be tested or the vehicle alone. 15 minutes after injection, latency in hot plate analgesia is measured. Rectal temperature, sedation and catalepsy are measured 20 minutes after injection.\nIn order to determine the antagonistic activity the identical procedure is used as for the determination of the agonistic effects, but with the difference that the substance to be evaluated for its antagonistic activity is injectected 5 minutes before the intravenous injection of 1.25 mg/kg Win-55,212 a known cannabinoid-receptor agonist.\nThe hot plate analgesia is determined according to the method described in Woolfe D. et al. \"The evaluation of analgesic action of pethidine hydrochloride (Demerol)\", J. Pharmacol. Exp. Ther. 80, 300-307,1944. […]\nThe mice are placed on a hot plate (Harvard Analgesimeter) at 55 ± 0.5 °C until they show a painful sensation by licking their paws or jumping and the time for these sensations to occur is recorded. This reading is considered the basal value (B). […]"}, "[1]": {"biological_target": "T1, transfected human CB1 receptors (Homo sapiens, UniProt P21554)", "T1 construct": "purchased Receptor Biology, Inc", "T1 sequence (P21554 whole entry)": "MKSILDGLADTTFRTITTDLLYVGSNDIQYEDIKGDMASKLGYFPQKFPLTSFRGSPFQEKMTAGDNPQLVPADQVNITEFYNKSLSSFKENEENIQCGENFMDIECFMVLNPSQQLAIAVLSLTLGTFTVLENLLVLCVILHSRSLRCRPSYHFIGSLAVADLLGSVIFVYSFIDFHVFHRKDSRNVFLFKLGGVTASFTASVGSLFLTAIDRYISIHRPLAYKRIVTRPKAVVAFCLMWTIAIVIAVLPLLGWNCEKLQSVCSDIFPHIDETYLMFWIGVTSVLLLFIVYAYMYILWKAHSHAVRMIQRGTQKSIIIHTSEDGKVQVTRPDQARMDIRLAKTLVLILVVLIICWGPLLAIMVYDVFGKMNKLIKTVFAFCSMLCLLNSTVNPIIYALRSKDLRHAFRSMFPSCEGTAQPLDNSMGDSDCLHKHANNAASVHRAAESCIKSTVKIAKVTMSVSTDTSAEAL", "assay": "in-vitro determination of affinity to CB1-Receptor (radioligand binding)", "settings": "transfected human CB1 receptors of Receptor Biology, Inc.; radioligand [^3H]-CP55940; read-out: CB1-Receptor Radiologand :[^3H]-CP55940 IC50", "description": "The in-vitro determination of the affinity of the inventive quaternary ammonium salts of substituted pyrazoline compounds to CB1/CB2-Rezeptors is carried out as described in the publication of Ruth A. Ross, Heather C. Brockie et al., \"Agonist-inverse agonist characterization at CB1 and CB2 cannabinoid receptors of L-759633, L759656 and AM630\", British Journal of Pharmacology, 126, 665-672, (1999), whereby the transfected human CB1 and CB2 receptors of Receptor Biology, Inc. are used. The radioligand used for both receptors is [^3H]-CP55940. The respective parts of the description are hereby incorporated by reference and forms part of the present disclosure."}}, "note": "Structures can show the parent of a compound that is named as a salt."}
{"smiles": "O=C(NN1CC2CCCC2C1)C1=NN(c2ccc(Cl)cc2Cl)C(c2ccc(Cl)cc2)C1", "note": "(stereo not shown) [1 (HCl)]", "values": [{"measurement": "Antagonistic Effect in (%)", "setting": "cannabinoid receptors; 1.25 mg/kg", "result": "117 ± 3", "unit": "%"}, {"measurement": "IC50", "setting": "[1]", "result": 70.8, "unit": "nM"}]}
{"smiles": "O=C(NN1CC2CCCC2C1)C1=NN(c2ccc(Cl)cc2Cl)C(c2ccc(Cl)cc2)C1", "note": "(stereo not shown) [Example 1, 5-(4-chlorophenyl)-1-(2,4-dichlorophenyl)-N-(hexahydrocyclopenta[c]pyrrol-2(1H)-yl)-4,5-dihydro-1H-pyrazole-3-carboxamide]", "values": [{"measurement": "Antagonistic Effect in (%)", "setting": "cannabinoid receptors; 1.25 mg/kg", "result": "122 ± 4", "unit": "%"}, {"measurement": "IC50", "setting": "[1]", "result": 12.6, "unit": "nM"}]}
{"smiles": "O=C(NN1CC2CCCC2C1)C1=NN(c2ccc(Cl)cc2Cl)[C@@H](c2ccc(Cl)cc2)C1", "note": "(stereo partly drawn) [Example 2, (R)-5-(4-chlorophenyl)-1-(2,4-dichlorophenyl)-N-(hexahydrocyclopenta[c]pyrrol-2(1H)-yl)-4,5-dihydro-1H-pyrazole-3-carboxamide]", "values": [{"measurement": "Antagonistic Effect in (%)", "setting": "cannabinoid receptors", "result": 125.9, "unit": "%"}, {"measurement": "IC50", "setting": "[1]", "result": 15.8, "unit": "nM"}]}
{"smiles": "O=C(NN1CC2CCCC2C1)C1=NN(c2ccc(Cl)cc2Cl)C(c2ccc(Br)cc2)C1", "note": "(stereo not shown) [Example 4, 5-(4-bromophenyl)-1-(2,4-dichlorophenyl)-N-(hexahydrocyclopenta[c]pyrrol-2(1H)-yl)-4,5-dihydro-1H-pyrazole-3-carboxamide]", "values": [{"measurement": "Antagonistic Effect in (%)", "setting": "cannabinoid receptors", "result": "121 ± 4", "unit": "%"}]}
